Experiments:
HeLa = experiment: Compound was evaluated for toxicity against HeLa S3 cells; type: functional, cell-based; settings: Homo sapiens
GH3 = experiment: Compound was evaluated for toxicity against GH3 cells; type: functional, cell-based; settings: Rattus norvegicus

| Compound | IC50 (HeLa) [µM] | IC50 (GH3) [µM] |
| --- | --- | --- |
| C[C@]12CC[C@@H]3c4ccc(OC(=O)N(CCCl)CCCl)cc4CC[C@H]3[C@@H]1CC[C@@H]2O [ESTRAMUSTINE] | 3.4 | – |
| C=C[C@@]12COC(=O)C(=C)[C@@H]1[C@H]1OC(=O)C(=C)[C@@H]1[C@@H](O)C2 [VERNOLEPIN] | 3.5 | 5.2 |
| C[C@]12CC[C@@H]3c4ccc(O)cc4CC[C@H]3[C@@H]1CC[C@@]2(O)[C@@H]1CO1 | 18.6 | 17.7 |
| C[C@]12CC[C@@H]3c4ccc(O)cc4CC[C@H]3[C@@H]1CC[C@@]2(O)[C@H]1CO1 | 6.5 | 5.5 |

— ChEMBL document CHEMBL1123353, “3,17 beta-Dihydroxy-20,21-epoxy-19-norpregna-1,3,5(10)-trienes: synthesis, rearrangement, cytotoxicity, and estrogen-receptor binding” (J Med Chem, 1986)
